The record followed here is patent publication US9615576B2, “Pesticidal compositions and processes related thereto” (Dow AgroSciences LLC, priority 2011, dated 2017).

Each structure is given as a SMILES string.

Experiment [1] relates to Beet Armyworm (BAW) (Spodoptera exigua). Description: Bioassays on Beet Armyworm (BAW), 128-well diet tray assay. Format: in vivo. The settings on record: 168 h, 50 μg/cm^2 test compound on artificial diet, second instar larvae, 25° C., five to seven days, average of eight wells, read-out: BAW Rating (% mortality). The protocol:
(§1) Certain molecules disclosed in this document were tested against BAW and CEW using procedures described in the following examples. In the reporting of the results, the “BAW & CEW Rating Table” was used (See Table Section).
Bioassays on BAW (Spodoptera exigua)
Bioassays on BAW were conducted using a 128-well diet tray assay. one to five second instar BAW larvae were placed in each well (3 mL) of the diet tray that had been previously filled with 1 mL of artificial diet to which 50 μg/cm^2 of the test compound (dissolved in 50 μL of 90:10 acetone-water mixture) had been applied (to each of eight wells) and then allowed to dry. Trays were covered with a clear self-adhesive cover, and held at 25° C., 14:10 light-dark for five to seven days. Percent mortality was recorded for the larvae in each well; activity in the eight wells was then averaged. The results are indicated in the table entitled “Table 3: Assay Results” (See Table Section).

Experiment [2] has as its system Corn Earworm (CEW) (Helicoverpa zea). In words: Bioassays on Corn Earworm (CEW), 128-well diet tray assay. Format: in vivo. The settings on record: 168 h, 50 μg/cm^2 test compound on artificial diet, second instar larvae, 25° C., five to seven days, average of eight wells, read-out: CEW Rating (% mortality). The protocol:
as §1
Bioassays on CEW (Helicoverpa zea)
Bioassays on CEW were conducted using a 128-well diet tray assay. one to five second instar CEW larvae were placed in each well (3 mL) of the diet tray that had been previously filled with 1 mL of artificial diet to which 50 μg/cm^2 of the test compound (dissolved in 50 μL of 90:10 acetone-water mixture) had been applied (to each of eight wells) and then allowed to dry. Trays were covered with a clear self-adhesive cover, and held at 25° C., 14:10 light-dark for five to seven days. Percent mortality was recorded for the larvae in each well; activity in the eight wells was then averaged. The results are indicated in the table entitled “Table 3: Assay Results” (See Table Section).

For `O=C(CNC(=S)c1ccc(/C=C/C(c2cc(Cl)c(Cl)c(Cl)c2)C(F)(F)F)cc1Br)NCC(F)(F)F` (stereo not drawn) [AC91, (E)-2-(2-bromo-4-(4,4,4-trifluoro-3-(3,4,5-trichlorophenyl)but-1-en-1-yl)phenylthioamido)-N-(2,2,2-trifluoroethyl)acetamide], the mortality at 50 µg/cm2 in experiment [1] and in experiment [2] was 50 to 100% each time.

As for `O=C(NCC(=S)NCC(F)(F)F)c1ccc(/C=C/C(c2cc(Cl)c(Cl)c(Cl)c2)C(F)(F)F)cc1Br` (stereo not drawn) [AC92, (E)-2-bromo-N-(2-thioxo-2-((2,2,2-trifluoroethyl)amino)ethyl)-4-(4,4,4-trifluoro-3-(3,4,5-trichlorophenyl)but-1-en-1-yl)benzamide], the mortality at 50 µg/cm2 in experiment [1] and in experiment [2] was 50 to 100% each time.

With `Cc1cc(/C=C\C(c2cc(Cl)cc(Cl)c2)C(F)(F)F)ccc1C(=O)NCC(=O)NC1CC1` (stereo not drawn) [AC93], the mortality (in general, the share of the test organisms that died) at 50 µg/cm2 in experiment [1] was 50 to 100%; in experiment [2] it was 0%.

For `Cc1cc(/C=C\C(c2cc(Cl)cc(Cl)c2)C(F)(F)F)ccc1C(=O)NCc1ccc(Cl)nc1` (stereo not drawn) [AC94], the mortality at 50 µg/cm2 was 0% in experiment [1] and 0 to 50% in experiment [2].

For the compound `O=C(CNC(=O)c1ccc(/C=C\C(c2cc(Cl)c(Cl)c(Cl)c2)C(F)(F)F)cc1Br)NCC(F)(F)F` (stereo not drawn) [AC95, (Z)-2-bromo-N-(2-oxo-2-((2,2,2-trifluoroethyl)amino)ethyl)-4-(4,4,4-trifluoro-3-(3,4,5-trichlorophenyl)but-1-en-1-yl)benzamide], the mortality at 50 µg/cm2 in experiment [1] and in experiment [2] was 50 to 100% in each case.

Take `CN(C)c1ccc(CNC(=O)c2ccc(/C=C/C(c3cc(Cl)c(Cl)c(Cl)c3)C(F)(F)F)cc2Br)cn1` (stereo not drawn) [AC96]: the mortality at 50 µg/cm2 in experiment [1] and in experiment [2] was 0% throughout.

Take `COc1ccc(CNC(=O)c2ccc(/C=C/C(c3cc(Cl)c(Cl)c(Cl)c3)C(F)(F)F)cc2Br)cn1` (stereo not drawn) [AC97]: the mortality at 50 µg/cm2 in experiment [1] and in experiment [2] was 0% throughout.

For the compound `O=C(CNC(=O)c1ccc(/C=C/C(c2cc(Cl)c(F)c(Cl)c2)C(F)(F)F)cc1[N+](=O)[O-])NCC(F)(F)F` (stereo not drawn) [AC98], the mortality at 50 µg/cm2 in experiment [1] and in experiment [2] was 50 to 100% throughout.

`O=C(CNC(=O)c1ccc(/C=C/C(c2ccc(F)c(Cl)c2)C(F)(F)F)cc1Br)NCC(F)(F)F` (stereo not drawn) [AC99]: the mortality at 50 µg/cm2 in experiment [1] and in experiment [2] was 50 to 100% throughout.

With `O=C(c1ccc(/C=C/C(c2cc(Cl)c(Cl)c(Cl)c2)C(F)(F)F)cc1Br)N1CCN(CC(F)(F)F)CC1` (stereo not drawn) [AC101], the mortality at 50 µg/cm2 in experiment [1] and in experiment [2] was 0% in each case.

As to `O=C(CNC(=O)c1ccc(/C=C/C(c2cc(F)c(Cl)c(F)c2)C(F)(F)F)cc1Br)NCC(F)(F)F` (stereo not drawn) [AC102], the figures for the mortality at 50 µg/cm2 in experiment [1] and in experiment [2] were 0% and 50 to 100%, respectively.

With `CC(=O)N1CCC(NC(=O)c2ccc(/C=C/C(c3cc(Cl)c(Cl)c(Cl)c3)C(F)(F)F)cc2Br)CC1` (stereo not drawn) [AC103, (E)-N-(1-acetylpiperidin-4-yl)-2-bromo-4-(4,4,4-trifluoro-3-(3,4,5-trichlorophenyl)but-1-en-1-yl)benzamide], the mortality at 50 µg/cm2 in experiment [1] and in experiment [2] was 50 to 100% throughout.

For the compound `O=C(NC1CCN(C(=O)CC(F)(F)F)CC1)c1ccc(/C=C/C(c2cc(Cl)c(Cl)c(Cl)c2)C(F)(F)F)cc1Br` (stereo not drawn) [AC104, (E)-2-bromo-4-(4,4,4-trifluoro-3-(3,4,5-trichlorophenyl)but-1-en-1-yl)-N-(1-(3,3,3-trifluoropropanoyl)piperidin-4-yl)benzamide], the mortality at 50 µg/cm2 in experiment [1] and in experiment [2] was 50 to 100% each time.

Regarding `O=C(NC1CCN(CC(F)(F)F)CC1)c1ccc(/C=C/C(c2cc(Cl)c(Cl)c(Cl)c2)C(F)(F)F)cc1Br` (stereo not drawn) [AC105, (E)-2-bromo-4-(4,4,4-trifluoro-3-(3,4,5-trichlorophenyl)but-1-en-1-yl)-N-(1-(2,2,2-trifluoroethyl)piperidin-4-yl)benzamide], the mortality at 50 µg/cm2 in experiment [1] and in experiment [2] was 50 to 100% each time.

For the compound `CN1CCC(NC(=O)c2ccc(/C=C/C(c3cc(Cl)c(Cl)c(Cl)c3)C(F)(F)F)cc2Br)CC1` (stereo not drawn) [AC106, (E)-2-bromo-N-(1-methylpiperidin-4-yl)-4-(4,4,4-trifluoro-3-(3,4,5-trichlorophenyl)but-1-en-1-yl)benzamide], the mortality at 50 µg/cm2 in experiment [1] and in experiment [2] was 50 to 100% each time.

As for `N#CCN1CCC(NC(=O)c2ccc(/C=C/C(c3cc(Cl)c(Cl)c(Cl)c3)C(F)(F)F)cc2Br)CC1` (stereo not drawn) [AC107], the mortality at 50 µg/cm2 lay in the range of 0 to 50% in experiment [1] and 50 to 100% in experiment [2].

As for `O=C(NC1CCN(C2COC2)CC1)c1ccc(/C=C/C(c2cc(Cl)c(Cl)c(Cl)c2)C(F)(F)F)cc1Br` (stereo not drawn) [AC108, (E)-2-bromo-N-(1-(oxetan-3-yl)piperidin-4-yl)-4-(4,4,4-trifluoro-3-(3,4,5-trichlorophenyl)but-1-en-1-yl)benzamide], the mortality at 50 µg/cm2 in experiment [1] is 0 to 50%; in experiment [2], 0%.

With `O=C(NC1CCN(CCO)CC1)c1ccc(/C=C/C(c2cc(Cl)c(Cl)c(Cl)c2)C(F)(F)F)cc1Br` (stereo not drawn) [AC109, (E)-2-bromo-N-(1-(2-hydroxyethyl)piperidin-4-yl)-4-(4,4,4-trifluoro-3-(3,4,5-trichlorophenyl)but-1-en-1-yl)benzamide], the mortality at 50 µg/cm2 in experiment [1] and in experiment [2] was 0% in each case.

Take `CONC(=O)CNC(=O)c1ccc(/C=C/C(c2cc(Cl)c(Cl)c(Cl)c2)C(F)(F)F)cc1Br` (stereo not drawn) [AC110]: the mortality at 50 µg/cm2 in experiment [1] and in experiment [2] was 50 to 100% in each case.

`C=CCNC(=O)CNC(=O)c1ccc(/C=C/C(c2cc(Cl)c(Cl)c(Cl)c2)C(F)(F)F)cc1Br` (stereo not drawn) [AC111]: the mortality at 50 µg/cm2 in experiment [1] and in experiment [2] was 50 to 100% each time.

Turning to `CN(C)NC(=O)CNC(=O)c1ccc(/C=C/C(c2cc(Cl)c(Cl)c(Cl)c2)C(F)(F)F)cc1Br` (stereo not drawn) [AC112], the mortality at 50 µg/cm2 in experiment [1] and in experiment [2] was 50 to 100% each time.

With `O=C(NCCc1ccc(Cl)nc1)c1ccc(/C=C/C(c2cc(Cl)c(Cl)c(Cl)c2)C(F)(F)F)cc1Br` (stereo not drawn) [AC113], the values for the mortality at 50 µg/cm2 in experiment [1] and in experiment [2] were 0 to 50% and 50 to 100%, respectively.

On to `O=C(NC1CCNCC1)c1ccc(/C=C/C(c2cc(Cl)c(Cl)c(Cl)c2)C(F)(F)F)cc1Br` (stereo not drawn) [AC114, (E)-2-bromo-N-(piperidin-4-yl)-4-(4,4,4-trifluoro-3-(3,4,5-trichlorophenyl)but-1-en-1-yl)benzamide], for which the mortality at 50 µg/cm2 in experiment [1] was in the range of 50 to 100%; in experiment [2], 0 to 50%.

With `Cc1cc(/C=C/C(c2cc(Cl)cc(Cl)c2)C(F)(F)F)ccc1C(=S)NCc1ccc(Cl)nc1` (stereo not drawn) [AC115, (E)-N-((6-chloropyridin-3-yl)methyl)-4-(3-(3,5-dichlorophenyl)-4,4,4-trifluorobut-1-en-1-yl)-2-methylbenzothioamide], the mortality at 50 µg/cm2 in experiment [1] and in experiment [2] was 50 to 100% in each case.

With `Cc1cc(/C=C/C(c2cc(Cl)cc(Cl)c2)C(F)(F)F)ccc1C(=O)N(C)Cc1ccc(Cl)nc1` (stereo not drawn) [AC117], the mortality at 50 µg/cm2 in experiment [1] was 50 to 100%; in experiment [2], 0%.

On to `Cc1cc(/C=C/C(c2cc(Cl)cc(Cl)c2)C(F)(F)F)ccc1C(=O)NCC1CCCO1` (stereo not drawn) [AC118], for which the figures for the mortality at 50 µg/cm2 in experiment [1] and in experiment [2] were 50 to 100% and 0%, respectively.

Take `CNC(=S)NC1CCc2cc(/C=C/C(c3cc(Cl)c(Cl)c(Cl)c3)C(F)(F)F)ccc21` (stereo not drawn) [BC1, (E)-1-methyl-3-(5-(4,4,4-trifluoro-3-(3,4,5-trichlorophenyl)-but-1-enyl)-2,3-dihydro-1H-inden-1-yl)thiourea]: the mortality at 50 µg/cm2 in experiment [1] and in experiment [2] was 50 to 100% in each case.

Consider `CCNC(=S)NC1CCc2cc(/C=C/C(c3cc(Cl)c(Cl)c(Cl)c3)C(F)(F)F)ccc21` (stereo not drawn) [BC2], for which the mortality at 50 µg/cm2 in experiment [1] and in experiment [2] was 50 to 100% each time.

Regarding `C=CCNC(=S)NC1CCc2cc(/C=C/C(c3cc(Cl)c(Cl)c(Cl)c3)C(F)(F)F)ccc21` (stereo not drawn) [BC3], the mortality at 50 µg/cm2 in experiment [1] and in experiment [2] was 50 to 100% each time.

In the case of `O=C(CC(F)(F)F)NC1CCc2cc(/C=C/C(c3cc(Cl)c(Cl)c(Cl)c3)C(F)(F)F)ccc21` (stereo not drawn) [BC4, (E)-3,3,3-trifluoro-N-(5-(4,4,4-trifluoro-3-(3,4,5-trichlorophenyl)but-1-enyl)-2,3-dihydro-1H-inden-1-yl)propanamide], the mortality at 50 µg/cm2 in experiment [1] and in experiment [2] was 50 to 100% each time.

On to `O=C(CC(F)(F)F)NC1CCCc2cc(/C=C/C(c3cc(Cl)c(Cl)c(Cl)c3)C(F)(F)F)ccc21` (stereo not drawn) [BC5], for which the mortality at 50 µg/cm2 in experiment [1] and in experiment [2] was 50 to 100% in each case.

Take `O=C(NC1CCc2cc(/C=C/C(c3cc(Cl)c(Cl)c(Cl)c3)C(F)(F)F)ccc21)C1CC1` (stereo not drawn) [BC6]: the mortality at 50 µg/cm2 in experiment [1] and in experiment [2] was 50 to 100% throughout.

On to `O=C(NC1CCCc2cc(/C=C/C(c3cc(Cl)c(Cl)c(Cl)c3)C(F)(F)F)ccc21)C1CC1` (stereo not drawn) [BC7], for which the mortality at 50 µg/cm2 in experiment [1] and in experiment [2] was 50 to 100% each time.
